Inhibition and IC50 data for 23 molecules are collected here from patent US8193191B2, “Urotensin II receptor antagonists” (Janssen Pharmaceutica N.V., priority 2006, dated 2012).

This assay deals with T1, rat GPR14 (U-II receptor) (Rattus norvegicus, UniProt P49684).
T1 construct: expressed in transfected cells
T1 sequence (P49684 1-386): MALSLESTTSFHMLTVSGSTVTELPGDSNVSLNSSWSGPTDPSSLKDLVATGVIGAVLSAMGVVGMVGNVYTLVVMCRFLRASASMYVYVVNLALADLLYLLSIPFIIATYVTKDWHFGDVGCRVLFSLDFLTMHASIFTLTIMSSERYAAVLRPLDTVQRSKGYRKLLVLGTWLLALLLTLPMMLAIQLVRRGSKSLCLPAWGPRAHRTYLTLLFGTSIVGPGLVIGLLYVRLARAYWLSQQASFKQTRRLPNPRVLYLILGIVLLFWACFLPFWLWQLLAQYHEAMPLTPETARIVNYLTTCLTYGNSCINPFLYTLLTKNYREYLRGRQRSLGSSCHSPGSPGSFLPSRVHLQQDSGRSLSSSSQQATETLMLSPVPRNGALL
The assay is described as follows: Rat UII Calcium Mobilization FLIPR Assay. The format is cell-based. The settings on record: for inhibition at 10 µM / inhibition at 50 µM: CHO, 5 min, agonist-induced Ca2+ mobilization (FLIPR), CHO cells with rat UII receptor; for inhibition at 10 µM: 10 μM compound, read-out: % I @ 10; for inhibition at 50 µM: 50 μM compound, read-out: % I @ 50; for IC50: Inhibition of Acetyl-cyclic[Cys-Phe-Trp-Lys-(2-Nal)-Cys]-NH2 induced Ca2+ mobilization (FLIPR) in CHO cells transfected with rat UII receptor, read-out: IC50. An excerpt:
To derive these cells, the complete coding sequence of rat U-II (Genbank Accession No. U32673) was amplified by nested PCR from rat heart marathon-Ready cDNA. […] The PCR products were cloned into pcDNA3 (Invitrogen) digested with EcoR I and Xba I. Clones containing rat U-II receptor were verified by complete sequencing of the U-II receptor insert to ensure a lack of PCR-introduced errors. The constructed vector was transfected into CHO cells by using lipofectamine (GIBCO BRL). CHO cells with high expression of rat U-II receptor were selected and established as stable cell lines by using G418. CHO cells were seeded at 25,000 cells per well into 96-well, black-wall, clear-bottom microtiter plates 24 h before assay. Cells in culture media (DMEM/F12 containing 15 mM HEPES, L-glutamine, pyridoxine hydrochloride; 10% fetal bovine serum; 1 mg/mL G418 sulfate; antibiotic-antimycotic; pH 7.4) were loaded with proprietary dye, from the FLIPR Calcium Assay Kit (Molecular Devices), prepared in assay buffer (Hanks Balanced Salts Solution, 20 mM HEPES, 0.1% BSA, 2.5 mM probenecid, pH 7.4), and incubated for 1 h at 37° C. Calcium mobilization determinations were performed at room temperature (23° C.).
Background: Calcium assays in cells follow changes in intracellular calcium, usually with a dye or a luminescent sensor.

Molecules are shown by their SMILES.

What is called IC50 is the concentration needed to halve the response being measured. Regarding `COc1ccc(CN2C(=O)c3cccc(N4CCN(Cc5ccc(C)cc5)CC4)c3C2=O)cc1OC` [Cpd 40, 2-(3,4-dimethoxy-benzyl)-4-[4-(4-methyl-benzyl)-piperazin-1-yl]-isoindole-1,3-dione], the inhibition at 10 µM came to 47%, the inhibition at 50 µM was 87% and the IC50 amounted to 9 µM.
As for `CCCOc1ccc(CN2C(=O)c3cccc(N4CCN([C@H](C)c5ccccc5)CC4)c3C2=O)cc1OC` [Cpd 41, 2-(3-methoxy-4-propoxy-benzyl)-4-[4-(1R)-(1-phenyl-ethyl)-piperazin-1-yl]-isoindole-1,3-dione], the inhibition at 10 µM was determined as 57%, the inhibition at 50 µM stood at 69% and the half-inhibitory concentration (IC50) was 9.8 µM.
With `COc1ccc(CN2C(=O)c3cccc(N4C[C@@H](C)N(Cc5ccccc5)[C@@H](C)C4)c3C2=O)cc1OC` [Cpd 42, (3R,5S)-4-(4-benzyl-3,5-dimethyl-piperazin-1-yl)-2-(3,4-dimethoxy-benzyl)-isoindole-1,3-dione], the inhibition at 10 µM came to 55%, the inhibition at 50 µM came out at 78% and the IC50 came out at 10 µM.
In the case of `O=C1c2cccc(N3CCN(Cc4ccccc4)CC3)c2C(=O)N1CCc1ccncc1` [Cpd 43, 4-(4-benzyl-piperazin-1-yl)-2-(2-pyridin-4-yl-ethyl)-isoindole-1,3-dione], the inhibition at 10 µM came out at 50%, the inhibition at 50 µM came out at 97% and the IC50 was determined as 10 µM.
For the molecule `COc1ccc(CN2C(=O)c3cccc(N4CCN(Cc5cccc(Cl)c5)CC4)c3C2=O)cc1OC` [Cpd 44, 4-[4-(3-chloro-benzyl)-piperazin-1-yl]-2-(3,4-dimethoxy-benzyl)-isoindole-1,3-dione], the inhibition at 10 µM was found to be 42%, the inhibition at 50 µM came out at 79% and the IC50 was 12 µM.
As for `COc1cc(CN2C(=O)c3cccc(N4CC5CCC(C4)N5Cc4ccccc4)c3C2=O)cc(OC)c1` [Cpd 45, 4-(8-benzyl-3,8-diaza-bicyclo[3.2.1]oct-3-yl)-2-(3,5-dimethoxy-benzyl)-isoindole-1,3-dione], the inhibition at 10 µM turned out to be 55%, the inhibition at 50 µM worked out at 40% and the IC50 came to 13 µM.
The corresponding values for `COc1ccc(CN2C(=O)c3cccc(N4CCN(Cc5cc(F)cc(F)c5)CC4)c3C2=O)cc1OC` [Cpd 46, 4-[4-(3,5-difluoro-benzyl)-piperazin-1-yl]-2-(3,4-dimethoxy-benzyl)-isoindole-1,3-dione] are 48%, 54% and 14 µM.
The corresponding values for `O=C1c2cccc(N3CCN(Cc4ccccc4)CC3)c2C(=O)N1CCCn1ccnc1` [Cpd 47, 4-(4-benzyl-piperazin-1-yl)-2-(3-imidazol-1-yl-propyl)-isoindole-1,3-dione] are 25%, 78% and 15 µM.
Regarding `COc1ccc(CN2C(=O)c3cccc(NCCNCc4ccccc4)c3C2=O)cc1OC` [Cpd 48, 4-(2-benzylamino-ethylamino)-2-(3,4-dimethoxy-benzyl)-isoindole-1,3-dione], the inhibition at 10 µM stood at 41%, the inhibition at 50 µM was determined as 78% and the IC50 worked out at 16 µM.
`COc1ccc(C(c2ccccc2)N2C(=O)c3cccc(N4CCN([C@H](C)c5ccccc5)CC4)c3C2=O)cc1OC` (stereo partly drawn) [Cpd 49, 2-[(3,4-dimethoxy-phenyl)-phenyl-methyl]-4-[4-(1R)-(1-phenyl-ethyl)-piperazin-1-yl]-isoindole-1,3-dione]: the inhibition at 10 µM amounted to 58%, the inhibition at 50 µM is 61% and the IC50 is 16 µM.
`COc1ccc(CN2C(=O)c3cccc(C4=CC5CCC(C4)N5Cc4ccccc4)c3C2=O)cc1OC` (stereo not drawn) [Cpd 50, 4-(8-benzyl-8-aza-bicyclo[3.2.1]oct-2-en-3-yl)-2-(3,4-dimethoxy-benzyl)-isoindole-1,3-dione]: the inhibition at 10 µM came out at 42%, the inhibition at 50 µM amounted to 77% and the IC50 was 17 µM.
The corresponding values for `COc1ccc(CN2C(=O)c3cccc(N4C[C@@H](C)N(C(C)c5ccccc5)[C@@H](C)C4)c3C2=O)cc1OC` (stereo partly drawn) [Cpd 51, (3R,5S)-2-(3,4-dimethoxy-benzyl)-4-[3,5-dimethyl-4-(1-phenyl-ethyl)-piperazin-1-yl]-isoindole-1,3-dione] are 43%, 65% and 18 µM.
The corresponding values for `COc1cc(CN2C(=O)c3cccc(N4CCN(C(C)C)CC4)c3C2=O)cc(OC)c1OC` [Cpd 52, 4-(4-isopropyl-piperazin-1-yl)-2-(3,4,5-trimethoxy-benzyl)-isoindole-1,3-dione] are 17%, 71% and 18 µM.
Consider `COc1ccc(CN2C(=O)c3cccc(OCCN(C)Cc4ccccc4)c3C2=O)cc1OC` [Cpd 53, 4-[2-(benzyl-methyl-amino)-ethoxy]-2-(3,4-dimethoxy-benzyl)-isoindole-1,3-dione], for which the inhibition at 10 µM was 22%, the inhibition at 50 µM turned out to be 78% and the IC50 was 21 µM.
For the molecule `COc1ccc(CN2C(=O)c3cccc(OCCNCc4ccccc4)c3C2=O)cc1OC` [Cpd 54, 4-(2-benzylamino-ethoxy)-2-(3,4-dimethoxy-benzyl)-isoindole-1,3-dione], the inhibition at 10 µM was 15%, the inhibition at 50 µM was 81% and the IC50 was found to be 21 µM.
With `Cc1c(CN2C(=O)c3cccc(N4CCN(Cc5ccccc5)CC4)c3C2=O)cnn1C` [Cpd 55, 4-(4-benzyl-piperazin-1-yl)-2-(1,5-dimethyl-1H-pyrazol-4-ylmethyl)-isoindole-1,3-dione], the inhibition at 10 µM is 12%, the inhibition at 50 µM is 75% and the IC50 amounted to 24 µM.
`COc1ccc(CN2CCN(c3cccc4c3C(=O)N(Cc3ccc(OC)c(OC)c3)C4=O)CC2)cc1OC` [Cpd 56, 2-(3,4-dimethoxy-benzyl)-4-[4-(3,4-dimethoxy-benzyl)-piperazin-1-yl]-isoindole-1,3-dione]: the inhibition at 10 µM was 21%, the inhibition at 50 µM is 68% and the IC50 is 25 µM.
The corresponding values for `COc1ccc(CN2C(=O)c3cccc(N4CCN(Cc5ccc(Cl)cc5)CC4)c3C2=O)cc1OC` [Cpd 57, 4-[4-(4-chloro-benzyl)-piperazin-1-yl]-2-(3,4-dimethoxy-benzyl)-isoindole-1,3-dione] are 19%, 58% and 30 µM.
The corresponding values for `COc1cc(CN2C(=O)c3cccc(N4CCN(Cc5ccccc5)CC4)c3C2=O)ccn1` [Cpd 58, 4-(4-benzyl-piperazin-1-yl)-2-(2-methoxy-pyridin-4-ylmethyl)-isoindole-1,3-dione] are 25%, 60% and 32 µM.
Take `O=C1c2cccc(N3CC4CCC(C3)N4Cc3ccccc3)c2C(=O)N1Cc1ccccn1` [Cpd 59, 4-(8-benzyl-3,8-diaza-bicyclo[3.2.1]oct-3-yl)-2-pyridin-2-ylmethyl-isoindole-1,3-dione]: the inhibition at 10 µM was found to be 11%, the inhibition at 50 µM turned out to be 56% and the half-inhibitory concentration (IC50) came to 34 µM.
Consider `COc1cc(CN2C(=O)c3cccc(N4CCN(CC(C)C)CC4)c3C2=O)cc(OC)c1OC` [Cpd 60, 4-(4-isobutyl-piperazin-1-yl)-2-(3,4,5-trimethoxy-benzyl)-isoindole-1,3-dione], for which the inhibition at 10 µM was determined as 8%, the inhibition at 50 µM was found to be 52% and the IC50 was 42 µM.
As for `COc1ccc(N2C(=O)c3cccc(N4CC5CCC(C4)N5Cc4ccccc4)c3C2=O)cc1OC` [Cpd 61, 4-(8-benzyl-3,8-diaza-bicyclo[3.2.1]oct-3-yl)-2-(3,4-dimethoxy-phenyl)-isoindole-1,3-dione], the inhibition at 10 µM came to 31%, the inhibition at 50 µM was 49% and the concentration for half-maximal inhibition (IC50) turned out to be 48 µM.
The corresponding values for `COc1ccc(CN2C(=O)c3c(C=CS(C)(=O)=O)ccc(N4CCN([C@H](C)c5ccccc5)CC4)c3C2=O)cc1OC` [Cpd 62, 2-(3,4-dimethoxy-benzyl)-4-(2-methanesulfonyl-vinyl)-7-[4-(1R)-(1-phenyl-ethyl)-piperazin-1-yl]-isoindole-1,3-dione] are 99%, 102% and 0.72 µM.
